From US12351574B2, “Selective ligands for modulation of GIRK channels” (Northeastern University, priority 2018, dated 2025)

Tests used:
[1] = light-dark box (LD) test; type: in vivo, rat; conditions: 10 and 30 mg/kg
Method: Light-dark box: Light-Dark Box test was preformed using a cage 52×100×39 cm divided into two equal sections by an opening. One section is brightly illuminated whereas the other section is dark. Animals were injected 30 min prior to testing with vehicle or ligand and then placed into the light side with immediate access to explore the entire cage. Time spent in the illuminated section was analyzed. The chamber was cleaned between each experiment.

[2] = biological target: T1, GIRK1/2(V-T) (UniProt P48542+P48549, V99T); test: TEVC in Xenopus oocytes, single mutant GIRK1/2(V-T); type: cell-based, human GIRK1, mouse GIRK2; conditions: GIRK1/2(V-T) single mutant
T1 construct: expressed in transfected cells; host or cells: Xenopus laevis oocytes (cRNA injection)
T1 sequence (P48549 1-501): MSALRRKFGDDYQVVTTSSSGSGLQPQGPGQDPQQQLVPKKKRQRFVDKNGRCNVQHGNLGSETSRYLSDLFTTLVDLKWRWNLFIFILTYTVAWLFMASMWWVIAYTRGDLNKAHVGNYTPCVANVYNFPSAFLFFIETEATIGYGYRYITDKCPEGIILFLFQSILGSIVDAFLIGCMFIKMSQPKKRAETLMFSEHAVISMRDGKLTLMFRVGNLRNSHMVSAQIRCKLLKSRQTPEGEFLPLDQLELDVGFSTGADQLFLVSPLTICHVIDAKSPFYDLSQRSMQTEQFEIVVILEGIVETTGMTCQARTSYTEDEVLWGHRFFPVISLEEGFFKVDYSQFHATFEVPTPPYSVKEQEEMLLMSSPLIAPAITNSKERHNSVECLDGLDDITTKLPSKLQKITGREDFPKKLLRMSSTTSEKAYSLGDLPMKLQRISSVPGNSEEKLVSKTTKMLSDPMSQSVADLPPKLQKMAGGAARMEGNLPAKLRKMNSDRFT
T1 sequence (P48542 1-425 V99T): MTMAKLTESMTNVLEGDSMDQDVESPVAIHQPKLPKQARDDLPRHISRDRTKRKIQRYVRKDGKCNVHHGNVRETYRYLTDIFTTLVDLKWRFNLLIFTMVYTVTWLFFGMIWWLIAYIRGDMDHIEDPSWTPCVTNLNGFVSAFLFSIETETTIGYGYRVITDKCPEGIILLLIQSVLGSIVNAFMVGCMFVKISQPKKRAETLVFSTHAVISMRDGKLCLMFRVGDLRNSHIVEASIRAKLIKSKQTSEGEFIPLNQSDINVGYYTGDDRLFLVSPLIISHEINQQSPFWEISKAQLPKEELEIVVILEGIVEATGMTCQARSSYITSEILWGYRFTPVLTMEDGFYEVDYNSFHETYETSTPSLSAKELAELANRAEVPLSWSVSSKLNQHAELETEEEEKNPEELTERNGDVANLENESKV
Excerpt: Molecular biology: For Xenopus oocyte expression, human GIRK1 and human GIRK4 cDNAs were subcloned into pGEMHE. For mammalian expression, human GIRK1 and human GIRK4 cDNAs were subcloned into pcDNA3 and pcDNA3.1/V5-His B, respectively (Invitrogen). Mouse GIRK2 cDNA was subcloned in the dual-function vector, pXoom. Point mutations were introduced using a standard Pfu-based mutagenesis technique according to the QuikChange protocol (Agilent). Mutations were verified by sequencing.
Electrophysiology of oocytes: Whole-oocyte currents were measured by conventional two-electrode voltage clamp (TEVC) with a GeneClamp 500 amplifier (Axon Instruments). Agarose cushion microelectrodes were filled with 1.5% (w/v) agarose in 3 M KCl and were used with resistances between 0.1 and 1.5 megaohms. […] Barium-sensitive basal currents from both groups, 1) Vehicle, 2) single concentration at 10 μM and 3) multiple concentrations of ML297 or GAT compounds in the presence of HK solution, were assessed at −80 mV using TEVC. Barium-sensitive currents were normalized to average basal current in the vehicle solutions. The HK solution contained the following: 96 mM KCl, 1 mM NaCl, 1 mM MgCl2, 5 mM KOH/HEPES, pH 7.4. The barium solution consisted of HK+10 mM BaCl2. Five to ten oocytes from the same batch (same frog) were recorded for each group, and the experiments were repeated in at least four batches. Data acquisition and analysis were carried out using pClamp9 (Molecular Devices) and OriginPro (Microcal) software.
To test these computational predictions, the inventors mutated each or both of the two M1 key wild-type GIRK4 subunit residues to the corresponding GIRK2 residues (GIRK4-V92I, GIRK4-T94V, GIRK4-V92I/T94V or GIRK4-dm) and vice-versa the GIRK2 residues to the corresponding GIRK4 ones (GIRK2-I97V, GIRK2-V99T, GIRK2-I97V/V99T or GIRK2-dm) (FIG. 35). […]

SMILES: Cc1cc(NC(=O)Nc2ccc(Br)s2)n(-c2ccccc2)n1 [GAT1508, 1-(5-bromothiophen-2-yl)-3-(3-methyl-1-phenyl-1H-pyrazol-5-yl)urea]
- time spent in the light compartment versus vehicle (in words) [1]: no difference
- EC50 [2]: 530 ± 70 nM
- EMAX [2]: 1.92±0.03
- Emax ([2]; read-out: EMAX, % of the control GIRK1/2): 65%
